Holding throughout (assay): DTP human tumour cell line panel, 48 h
Assay [1] relates to DU-145.
Assay [2] relates to HCT-15.
The test system of assay [3] is HL-60.
Assay [4] has as its system HOP-92.
Assay [5] relates to HT-29.
The test system of assay [6] is Hs-578T.
For assay [7], the system named is IGROV-1.
For assay [8], the system named is KM12.
The subject of assay [9] is LOX IMVI.
Assay [10] deals with Malme-3M.
Assay [11] relates to NCI/ADR-RES.
The test system of assay [12] is OVCAR-4.
Assay [13] concerns RPMI-8226.
The test system of assay [14] is SK-MEL-28.
For assay [15], the system named is SK-MEL-5.
Assay [16] has as its system T47D.
The test system of assay [17] is TK-10.
In assay [18] the test system is U-251.
In assay [19] the test system is UACC-62.
The subject of assay [20] is PC-3.

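96-well plates; 48 h exposure; 5 concentrations. Endpoints by linear interpolation between flanking doses. Not reached: highest tested concentration assigned. GI50 marks 50% less growth.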 Calls of active or inactive are those of the source. Cut-off read from the data, not from the text of the source: active = GI50 up to about 1.1 µM and inactive = higher.

As usually defined, the GI50 is the concentration giving 50% growth inhibition. For `CC(C)(Br)C(Br)CC/C(=C/CBr)CBr.CC(C)(Br)C(Br)CC/C(=C\CBr)CBr` (configuration not stated), the GI50 was 10.5 µM (inactive) in [1]; 2.51 µM in assay [2]; 0.553 µM (active) in assay [3]; 4.33 µM (inactive) in assay [4]; 3.02 µM (inactive) in assay [5]; 19.1 µM (inactive) in assay [6]. Besides, the GI50 in assay [7] is 3.08 µM (inactive); in [8] it was 4.16 µM (inactive); in [9], 0.13 µM (active); in [10], 3.85 µM (inactive); in assay [11] it was 3.11 µM (inactive); in assay [12] it was 5.2 µM (inactive). The GI50 in assay [13] is 1.47 µM (inactive); in assay [14], 2.27 µM (inactive); in assay [15], 4.5 µM (inactive); in [16], 2.76 µM (inactive); in assay [17] it was 8.77 µM (inactive); in [18], 3.05 µM (inactive). Moreover, the GI50 in assay [19] is 2.05 µM (inactive).

As for `COc1ccc(/C=C2/S/C(=N\c3ccccc3)N(NC(=O)Cc3ccccc3)C2=O)cc1`, the GI50 was > 100 µM (inactive) in assay [1]; above 100 µM in assay [2]; > 100 µM (inactive) in assay [3]; > 100 µM (inactive) in [4]; > 100 µM (inactive) in [5]; > 100 µM (inactive) in assay [6]. For the same compound, the GI50 in [7] was > 100 µM (inactive); in assay [8] it was > 100 µM (inactive); in assay [11], > 100 µM (inactive); in assay [12], 74.3 µM (inactive); in assay [13] it was > 100 µM (inactive); in assay [14] it was > 100 µM (inactive). For the same compound, the GI50 in assay [15], in assay [16], in assay [17], in [18] and in assay [19] was > 100 µM (inactive) throughout.

Take `COc1ccc(/C(=N\NC(=S)NN)C(c2ccc(OC)cc2)C2C(=O)Oc3ccccc32)cc1` (configuration not stated): the GI50 was above 10 µM in assay [2]; > 10 µM (inactive) in assay [3]; > 10 µM (inactive) in assay [4]; > 10 µM (inactive) in assay [5]; > 10 µM (inactive) in assay [7]; > 10 µM (inactive) in assay [8]. The GI50 in [9] was > 10 µM (inactive); in assay [10], > 10 µM (inactive); in assay [12] it was > 10 µM (inactive); in [13], > 10 µM (inactive); in assay [14], 56.2 µM (inactive); in assay [15], > 10 µM (inactive). The GI50 in assay [17], in assay [18] and in [19] was > 10 µM (inactive) each time.

With `CCc1nnc(S)n1/N=C/c1ccc(-c2ccc([N+](=O)[O-])cc2)o1`, the GI50 in [2] is above 100 µM; in [3], > 100 µM (inactive); in assay [4] it was > 100 µM (inactive); in assay [5] it was > 100 µM (inactive); in [7], > 100 µM (inactive); in [8] it was > 100 µM (inactive). The GI50 in assay [9], in assay [10], in assay [12], in assay [13], in assay [14] and in assay [17] was > 100 µM (inactive) throughout. Moreover, the GI50 in assay [18] and in assay [19] was > 100 µM (inactive) each time.

As for `CCCCN(CCCC)C(=O)C(=O)CC(=O)c1ccc(Br)cc1`, the GI50 in assay [2] is above 100 µM; in assay [3], > 100 µM (inactive); in assay [4], > 100 µM (inactive); in assay [5] it was > 100 µM (inactive); in [7] it was > 100 µM (inactive); in [8], > 100 µM (inactive). Moreover, the GI50 in assay [9], in assay [10], in [12], in [13], in assay [15] and in assay [17] was > 100 µM (inactive) in each case. Also, the GI50 in assay [18] and in [19] was > 100 µM (inactive) each time.

Consider `C=CCCCCn1c2ccccc2c2c(C)c3c[n+](C)ccc3c(C)c21`, for which the GI50 is 0.171 µM (active) in [3]; 0.237 µM (active) in assay [4]; 0.271 µM (active) in assay [5]; 0.252 µM (active) in [7]; 0.392 µM (active) in assay [8]; 0.284 µM (active) in [9]. For the same compound, the GI50 was 0.275 µM (active) in assay [10]; 0.284 µM (active) in [12]; 0.212 µM (active) in [13]; 0.426 µM (active) in [14]; 0.329 µM (active) in assay [15]; 1.86 µM (inactive) in [17]. The GI50 in assay [18] is 0.197 µM (active); in assay [19], 0.336 µM (active).

For `Cc1cc(C)nc(/C(=N\NC(N)=O)C(=O)Nc2nc3ccc(C)cc3s2)c1`, the GI50 in [2] is above 70 µM; in assay [3] it was > 100 µM (inactive); in assay [4] it was > 100 µM (inactive); in [5], > 77.3 µM (inactive); in assay [7], > 100 µM (inactive); in assay [8], > 100 µM (inactive). The GI50 in [9] was > 46.6 µM (inactive); in assay [10], > 100 µM (inactive); in [12] it was > 100 µM (inactive); in assay [13], > 48.2 µM (inactive); in assay [14], > 100 µM (inactive); in [15], > 100 µM (inactive). The GI50 in assay [17], in [18] and in assay [19] was > 100 µM (inactive) throughout.

Take `O=C(OC1CC(n2cc(F)c(=O)[nH]c2=O)OC1CSC(=O)c1ccccc1)c1ccccc1` (configuration not stated): the GI50 in assay [2] is 34.2 µM; in assay [3], 23.3 µM (inactive); in assay [4], 22.9 µM (inactive); in assay [5] it was 17.8 µM (inactive); in assay [7], 56.2 µM (inactive); in [8], 27.4 µM (inactive). The GI50 is 50.9 µM (inactive) in assay [9]; 28.7 µM (inactive) in assay [10]; 16.6 µM (inactive) in assay [12]; 22.5 µM (inactive) in assay [13]; 48 µM (inactive) in assay [14]; > 100 µM (inactive) in assay [17]. Also, the GI50 in [18] is 17.6 µM (inactive); in [19], 36.4 µM (inactive).

Consider `CC/C=C/C(=O)CC(O)(C(F)(F)F)C(F)(F)F`, for which the GI50 in [1] was > 100 µM (inactive); in [2] it was above 100 µM; in assay [3] it was 92.7 µM (inactive); in assay [4], 32.4 µM (inactive); in assay [5] it was > 100 µM (inactive); in assay [6], 19 µM (inactive). Moreover, the GI50 in assay [7], in assay [8], in assay [9], in [10], in [11] and in [12] was > 100 µM (inactive) each time. The GI50 in assay [13] was 54.8 µM (inactive); in [14] it was > 100 µM (inactive); in assay [15], > 100 µM (inactive); in assay [16] it was 82.2 µM (inactive); in assay [17], > 100 µM (inactive); in assay [18], > 100 µM (inactive). In [19], the GI50 is > 100 µM (inactive).

Regarding `CC1CC(N)=Nc2ccccc2N1` (configuration not stated), the GI50 in assay [1] was > 100 µM (inactive); in assay [2] it was above 100 µM; in assay [3], > 100 µM (inactive); in assay [5], > 100 µM (inactive); in assay [6], > 100 µM (inactive); in assay [7], 54.2 µM (inactive). Also, the GI50 was > 100 µM (inactive) in [8]; > 100 µM (inactive) in [9]; 58.2 µM (inactive) in assay [10]; > 100 µM (inactive) in [11]; > 100 µM (inactive) in [12]; > 100 µM (inactive) in assay [20]. The GI50 in [13], in [14], in [15], in assay [17], in assay [18] and in assay [19] was > 100 µM (inactive) in each case.

Regarding `CC(C)C(=O)Oc1cc2c(=O)oc3c(OC(=O)C(C)C)c(OC(=O)C(C)C)cc4c(=O)oc(c1OC(=O)C(C)C)c2c34`, the GI50 in assay [1] was > 100 µM (inactive); in [2], above 100 µM; in assay [4] it was > 100 µM (inactive); in assay [5] it was > 100 µM (inactive); in assay [6], > 100 µM (inactive); in assay [7] it was > 100 µM (inactive). The GI50 in assay [8], in [9], in assay [10], in assay [11], in [12] and in assay [20] was > 100 µM (inactive) in each case. Also, the GI50 in assay [13], in assay [14], in assay [15], in assay [17], in assay [18] and in [19] was > 100 µM (inactive) each time.

Take `COC1=CC(=O)C2C(C1=O)[C@@H]1c3ccccc3C[C@H]21` (some centres not stated): the concentration for 50% growth inhibition (GI50) in assay [2] is above 100 µM; in assay [3] it was > 100 µM (inactive); in assay [4] it was > 100 µM (inactive); in assay [5], > 100 µM (inactive); in assay [7], > 100 µM (inactive); in assay [8], > 100 µM (inactive). Also, the GI50 in assay [9], in assay [10], in assay [12], in assay [13], in [14] and in assay [15] was > 100 µM (inactive) in each case. The GI50 in assay [17], in [18] and in assay [19] was > 100 µM (inactive) in each case.

These data come from ChEMBL document CHEMBL1201862, “PubChem BioAssay data set” (2004).
